target: Wild-type cruzipain (Trypanosoma cruzi, UniProt P25779); test: Trypanosoma cruzi cruzipain peptidase activity assay (Ki); assay type: biochemical; conditions: read-out: Ki, inhibitors of cruzain and cruzipains
Method: Unless otherwise stated, all general chemicals and biochemicals were purchased from either the Sigma Chemical Company, Poole, Dorset, U.K or from Fisher Scientific UK, Loughborough, Leicestershire, U.K. Absorbance assays were carried out in flat-bottomed 96-well plates (Spectra; Greiner Bio-One Ltd., Stonehouse, Gloucestershire, U.K.) using a SpectraMax PLUS384 plate reader (Molecular Devices, Crawley, U.K.). Fluorescence high throughput assays were carried out in either 384-well microtitre plates (Corning Costar 3705 plates, Fisher Scientific) or 96-well ‘U’ bottomed Microfluor W1 microtitre plates (Thermo Labsystems, Ashford, Middlesex, U.K.). Fluorescence assays were monitored using a SpectraMax Gemini fluorescence plate reader (Molecular Devices). For substrates employing either a 7-amino-4-methylcoumarin (AMC) or a 7-amino-4-trifluoromethylcoumarin (AFC) fluorophore, assays were monitored at an excitation wavelength of 365 nm and an emission wavelength of 450 nm and the fluorescence plate reader calibrated with AMC. For substrates employing a 3-amino-benzoyl (Abz) fluorophore, assays were monitored at an excitation wavelength of 310 nm and an emission wavelength of 445 nm; the fluorescence plate reader calibrated with 3-amino-benzamide (Fluka). Unless otherwise indicated, all the peptidase substrates were purchased from Bachem UK, St Helens, Merseyside, UK. Substrates utilizing fluorescence resonance energy transfer methodology (i.e. FRET-based substrates) were synthesized at Incenta Limited using published methods (Atherton & Sheppard, Solid Phase Peptide Synthesis, IRL Press, Oxford, U.K, 1989) and employed Abz (2-aminobenzoyl) as the fluorescence donor and 3-nitro-tyrosine [Tyr(NO2)] as the fluorescence quencher (Meldal, M. and Breddam, K., Anal. Biochem, 195, 141-147, 1991). Hydroxyethylpiperazine ethanesulfonate (HEPES), tris-hydroxylmethyl aminomethane (tris) base, bis-tris-propane and all the biological detergents (e.g. CHAPS, zwittergents, etc.) were purchased from CN Biosciences UK, Beeston, Nottinghamshire, U.K. Glycerol was purchased from Amersham Pharmacia Biotech, Little Chalfont, Buckinghamshire, U.K. Stock solutions of substrate or inhibitor were made up to 10 mM in 100% dimethylsulfoxide (DMSO) (Rathburns, Glasgow, U.K.) and diluted as appropriately required. In all cases the DMSO concentration in the assays was maintained at less than 1% (vol./vol.).
Assay protocols were based on literature precedent (Table 4; Barrett, A. J., Rawlings, N. D. and Woessner, J. F., 1998, Handbook of Proteolytic Enzymes, Academic Press, London and references therein) and modified as required to suit local assay protocols. Enzyme was added as required to initiate the reaction and the activity, as judged by the change in fluorescence upon conversion of substrate to product, was monitored over time. All assays were carried out at 25±1° C.
Wild-type cruzipain, derived from Trypanosoma cruzi Dm28 epimastigotes, was obtained from Dr. Julio Scharfstein (Instituto de Biofisica Carlos Chagas Filho, Universidade Federal do Rio de Janeiro, Rio de Janeiro, Brazil). Activity assays were carried out in 100 mM sodium phosphate, pH 6.75 containing 1 mM EDTA and 10 mM L-cysteine using 2.5 nM enzyme. […] The rate of conversion of substrate to product was derived from the slope of the increase in fluorescence monitored continuously over time.
The apparent inhibition constant (Ki) for each compound was determined on the basis that inhibition was reversible and occurred by a pure-competitive mechanism. The Ki values were calculated, from the dependence of enzyme activity as a function of inhibitor concentration, by direct regression analysis (Prism v 3.02) using Equation 2 (Cornish-Bowden, A., 1995.). [formula]

Wild-type cruzipain, sequence (P25779 whole entry): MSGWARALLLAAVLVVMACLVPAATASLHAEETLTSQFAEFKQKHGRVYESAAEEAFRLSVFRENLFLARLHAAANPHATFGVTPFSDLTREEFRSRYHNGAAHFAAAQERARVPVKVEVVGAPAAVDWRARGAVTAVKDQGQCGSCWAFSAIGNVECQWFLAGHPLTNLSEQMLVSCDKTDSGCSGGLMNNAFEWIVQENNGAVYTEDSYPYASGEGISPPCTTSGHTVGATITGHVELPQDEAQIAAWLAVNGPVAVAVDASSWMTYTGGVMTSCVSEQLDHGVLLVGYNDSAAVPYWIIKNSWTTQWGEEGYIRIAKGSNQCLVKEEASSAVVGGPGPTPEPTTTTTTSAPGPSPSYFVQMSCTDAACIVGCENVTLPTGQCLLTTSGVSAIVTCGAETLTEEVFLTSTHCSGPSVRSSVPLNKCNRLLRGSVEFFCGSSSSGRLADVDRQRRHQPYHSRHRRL

Row | Compound | Ki [µM]
1 | CC(C)C[C@H](NC(=O)c1ccc(N(C)C)cc1)C(=O)N1CC[C@@H]2[C@H]1C(=O)CN2C(=O)c1ccccn1 [Example 79, (3aR,6aS)-4-Dimethylamino-N-{(1S)-3-methyl-1-[6-oxo-4-(pyridine-2-carbonyl)-hexahydro-pyrrolo[3,2-b]pyrrole-1-carbonyl]-butyl}-benzamide] | < 5
2 | Cc1ccccc1C(=O)N1CC(=O)[C@@H]2[C@H]1CCN2C(=O)[C@H](CC(C)C)NC(=O)c1ccc(N(C)C)cc1 [Example 53, (3aR,6aS)-4-Dimethylamino-N-{(1S)-3-methyl-1-[4-(2-methyl-benzoyl)-6-oxo-hexahydro-pyrrolo[3,2-b]pyrrole-1-carbonyl]-butyl}-benzamide] | < 5
3 | CC(C)C[C@H](NC(=O)c1ccc(N(C)C)cc1)C(=O)N1CC[C@@H]2[C@H]1C(=O)CN2C(=O)c1ccc(N2CCOCC2)nc1 [Example 94, (3aR,6aS)-4-Dimethylamino-N-{(1S)-3-methyl-1-[4-(6-morpholin-4-yl-pyridine-3-carbonyl)-6-oxo-hexahydro-pyrrolo[3,2-b]pyrrole-1-carbonyl]-butyl}-benzamide] | < 5
4 | CC(=O)N(C)[C@@H](CC(C)C)C(=O)N1CC(=O)[C@@H]2[C@H]1CCN2C(=O)[C@H](CC(C)C)NC(=O)c1ccc(N(C)C)cc1 [Example 221, (3aR,6aS)-N-((1S)-1-{4-[(2S)-2-(Acetyl-methyl-amino)-4-methyl-pentanoyl]-6-oxo-hexahydro-pyrrolo[3,2-b]pyrrole-1-carbonyl}-3-methyl-butyl)-4-dimethylamino-benzamide] | < 5
5 | Cc1ccc(C(=O)N2CC(=O)[C@@H]3[C@H]2CCN3C(=O)[C@H](CC(C)C)NC(=O)c2ccc(N(C)C)cc2)cc1 [Example 55, (3aR,6aS)-4-Dimethylamino-N-{(1S)-3-methyl-1-[4-(4-methyl-benzoyl)-6-oxo-hexahydro-pyrrolo[3,2-b]pyrrole-1-carbonyl]-butyl}-benzamide] | < 5
6 | O=C(N[C@@H](Cc1cccc(F)c1)C(=O)N1CC[C@@H]2[C@H]1C(=O)CN2C(=O)c1ccccc1)c1cccc(Br)c1 [Example 342, (3aR,6aS)-N-[(1S)-2-(4-Benzoyl-6-oxo-hexahydro-pyrrolo[3,2-b]pyrrol-1-yl)-1-(3-fluoro-benzyl)-2-oxo-ethyl]-3-bromo-benzamide] | < 5
7 | O=C(N[C@@H](CSCc1ccccc1)C(=O)N1CC[C@@H]2[C@H]1C(=O)CN2C(=O)c1ccccc1)c1cccc(Oc2ccccc2)c1 [Example 260, (3aR,6aS)-N-[(1R)-2-(4-Benzoyl-6-oxo-hexahydro-pyrrolo[3,2-b]pyrrol-1-yl)-1-benzylsulfanylmethyl-2-oxo-ethyl]-3-phenoxy-benzamide] | < 5
8 | O=C(N[C@@H](Cc1cc(F)cc(F)c1)C(=O)N1CC[C@@H]2[C@H]1C(=O)CN2C(=O)c1ccccc1)c1cccc(Br)c1 [Example 343, (3aR,6aS)-N-[(1S)-2-(4-Benzoyl-6-oxo-hexahydro-pyrrolo[3,2-b]pyrrol-1-yl)-1-(3,5-difluoro-benzyl)-2-oxo-ethyl]-3-bromo-benzamide] | < 5
9 | O=C(N[C@@H](Cc1ccc(O)cc1)C(=O)N1CC[C@@H]2[C@H]1C(=O)CN2C(=O)c1ccccc1)c1cccc(OC(F)(F)F)c1 [Example 339, (3aR,6aS)-N-[(1S)-2-(4-Benzoyl-6-oxo-hexahydro-pyrrolo[3,2-b]pyrrol-1-yl)-1-(4-hydroxy-benzyl)-2-oxo-ethyl]-3-trifluoromethoxy-benzamide] | < 5
10 | CC(C)C[C@H](NC(=O)c1ccc(N(C)C)cc1)C(=O)N1CC[C@@H]2[C@H]1C(=O)CN2C(=O)c1ccc(O)cc1 [Example 49, (3aR,6aS)-4-Dimethylamino-N-{(1S)-1-[4-(4-hydroxy-benzoyl)-6-oxo-hexahydro-pyrrolo[3,2-b]pyrrole-1-carbonyl]-3-methyl-butyl}-benzamide] | < 5
11 | O=C(N[C@@H](Cc1ccc(O)cc1)C(=O)N1CC[C@@H]2[C@H]1C(=O)CN2C(=O)c1ccccc1)c1ccccc1 [Example 333, (3aR,6aS)-N-[(1S)-2-(4-Benzoyl-6-oxo-hexahydro-pyrrolo[3,2-b]pyrrol-1-yl)-1-(4-hydroxy-benzyl)-2-oxo-ethyl]-benzamide] | < 5
12 | CC(C)C[C@H](NC(=O)c1ccc(N(C)C)cc1)C(=O)N1CC[C@@H]2[C@H]1C(=O)CN2C(=O)c1ccc(S(C)(=O)=O)s1 [Example 51, (3aR,6aS)-4-Dimethylamino-N-{(1S)-1-[4-(5-methanesulfonyl-thiophene-2-carbonyl)-6-oxo-hexahydro-pyrrolo[3,2-b]pyrrole-1-carbonyl]-3-methyl-butyl}-benzamide] | < 5
13 | CC(C)(C)c1ccc(C(=O)N[C@@H](Cc2cccs2)C(=O)N2CC[C@@H]3[C@H]2C(=O)CN3C(=O)c2cccnc2)cc1 [Example 23, (3aR,6aS)-4-tert-Butyl-N-{(1S)-2-oxo-2-[6-oxo-4-(pyridine-3-carbonyl)-hexahydro-pyrrolo[3,2-b]pyrrole-1-yl]-1-thiophen-2-ylmethyl-ethyl}-benzamide] | < 5
14 | CC(C)C[C@H](NC(=O)c1ccc(C(C)(C)C)cc1)C(=O)N1CC[C@@H]2[C@H]1C(=O)CN2C(=O)c1cccc2ccccc12 [Example 33, (3aR,6aS)-tert-Butyl-N-{(1)-3-methyl-1-[4-(naphthalene-1-carbonyl)-6-oxo-hexahydro-pyrrolo[3,2-b]pyrrole-1-carbonyl-]-butyl}-benzamide] | < 5

Next, values leading:

Row | Ki [µM] | Compound
15 | < 5 | CC(C)C[C@H](NC(=O)c1ccc(N(C)C)cc1)C(=O)N1CC[C@@H]2[C@H]1C(=O)CN2C(=O)C1(N)CCCC1 [Example 224]
16 | < 5 | CC(C)C[C@H](NC(=O)c1ccc(N(C)C)cc1)C(=O)N1CC[C@@H]2[C@H]1C(=O)CN2C(=O)[C@H]1CCCN1 [Example 157, (3aR,6aS)-4-Dimethylamino-N-{(1S)-3-methyl-1-[6-oxo-4-((2R)-pyrrolidine-2-carbonyl)-hexahydro-pyrrolo[3,2-b]pyrrole-1-carbonyl]-butyl}-benzamide]
17 | < 5 | CC(C)C[C@H](NC(=O)c1ccc(N(C)C)cc1)C(=O)N1CC[C@@H]2[C@H]1C(=O)CN2C(=O)c1ccc[n+]([O-])c1 [Example 81, (3aR,6aS)-4-Dimethylamino-N-{(1S)-3-methyl-1-[6-oxo-4-(1-oxy-pyridine-3-carbonyl)-hexahydro-pyrrolo[3,2-b]pyrrole-1-carbonyl]-butyl}-benzamide]
18 | < 5 | CC(=O)NCC(=O)N1CC(=O)[C@@H]2[C@H]1CCN2C(=O)[C@H](CC(C)C)NC(=O)c1ccc(N(C)C)cc1 [Example 199, (3aR,6aS)-N-{(1S)-1-[4-(2-Acetylamino-acetyl)-6-oxo-hexahydro-pyrrolo[3,2-b]pyrrole-1-carbonyl]-3-methyl-butyl}-4-dimethylamino-benzamide]
19 | < 5 | CC(C)C[C@H](NC(=O)c1ccc(N(C)C)cc1)C(=O)N1CC[C@@H]2[C@H]1C(=O)CN2C(=O)[C@@H]1CCCN1 [Example 156, (3aR,6aS)-4-Dimethylamino-N-{(1S)-3-methyl-1-[6-oxo-4-((2S)-pyrrolidine-2-carbonyl)-hexahydro-pyrrolo[3,2-b]pyrrole-1-carbonyl]-butyl}-benzamide]
20 | < 5 | CC(C)C[C@H](NC(=O)c1ccc(N(C)C)cc1)C(=O)N1CC[C@@H]2[C@H]1C(=O)CN2C(=O)C1CCCNC1 (stereo partly drawn) [Example 140, (3aR,6aS)-4-Dimethylamino-N-{(1S)-3-methyl-1-[6-oxo-4-(piperidine-3-carbonyl)-hexahydro-pyrrolo[3,2-b]pyrrole-1-carbonyl]-butyl}-benzamide]
21 | < 5 | CC(C)C[C@H](NC(=O)c1ccc(N(C)C)cc1)C(=O)N1CC[C@@H]2[C@H]1C(=O)CN2C(=O)CN1CCNCC1 [Example 241, (3aR,6aS)-4-Dimethylamino-N-{(1S)-3-methyl-1-[6-oxo-4-(2-piperazin-1-yl-acetyl)-hexahydro-pyrrolo[3,2-b]pyrrole-1-carbonyl]-butyl}-benzamide]

Source: patent publication US20060100431A1, “Biologically active compounds” (Amura Therapeutics Limited, priority 2002, published 2006)
